According to ChEMBL document CHEMBL1201862, “PubChem BioAssay data set” (2004):
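Interpolation was linear, between the two tested concentrations surrounding the appropriate level; five concentrations were tested over 48 hours in 96-well plates. At the GI50, growth is halved.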 The source made the active and inactive calls. Rule as the data show it: active = GI50 up to about 1.1 µM and inactive = higher.

Experiments:
Assay in all cases: NCI-60 cell line screen, 48 h
[1] = tested on: MDA-MB-231
[2] = tested on: NCI-H522
[3] = tested on: SK-MEL-28
[4] = tested on: K562
[5] = tested on: CAKI-1
[6] = tested on: DU-145
[7] = tested on: SNB-19
[8] = tested on: RPMI-8226
[9] = tested on: PC-3
[10] = tested on: MOLT-4
[11] = tested on: UACC-62
[12] = tested on: NCI-H460
[13] = tested on: CCRF-CEM
[14] = tested on: KM12
[15] = tested on: LOX IMVI
[16] = tested on: HCT-116
[17] = tested on: MDA-N
[18] = tested on: Malme-3M
[19] = tested on: TK-10

Structure (SMILES)	GI50 [1]	GI50 [2]	GI50 [3]	GI50 [4]	GI50 [5]	GI50 [6]	GI50 [7]	GI50 [8]	GI50 [9]	GI50 [10]	GI50 [11]	GI50 [12]	GI50 [13]	GI50 [14]	GI50 [15]	GI50 [16]	GI50 [17]	GI50 [18]	GI50 [19]
CC(C)(C)C1CCC2c3c([nH]c4ccccc34)C3C(=O)N(c4ccc5c(c4)C(=O)c4ccccc4C5=O)C(=O)C3C2C1 (stereo not given)	> 100 µM (inactive)	> 100 µM (inactive)	> 100 µM (inactive)	> 100 µM (inactive)	> 100 µM (inactive)	> 100 µM (inactive)	> 100 µM (inactive)	> 100 µM (inactive)	> 100 µM (inactive)	> 100 µM (inactive)	> 100 µM (inactive)	> 100 µM (inactive)	> 100 µM (inactive)	> 100 µM (inactive)	> 100 µM (inactive)	> 100 µM (inactive)	> 100 µM (inactive)	> 100 µM (inactive)	> 100 µM (inactive)
CCCCCCCCCCCCCCCCCCNc1ccn(C2OC(COP(=O)(O)OCC3OC(n4cc(F)c(NCCCCCCCCCCCCCCCCCC)nc4=O)CC3O)C(O)C2O)c(=O)n1 (stereo not given)	78.9 µM (inactive)	38.9 µM (inactive)	> 100 µM (inactive)	> 100 µM (inactive)	> 100 µM (inactive)	> 100 µM (inactive)	66.8 µM (inactive)	66.4 µM (inactive)	56.8 µM (inactive)	> 100 µM (inactive)	> 100 µM (inactive)	> 100 µM (inactive)	> 100 µM (inactive)	> 100 µM (inactive)	> 100 µM (inactive)	> 100 µM (inactive)	> 100 µM (inactive)	42.6 µM (inactive)	> 100 µM (inactive)
CCCCCCCCCCCCCCCCCCOC(COP(=O)(O)OCC1OC(n2cc(F)c(=O)[nH]c2=O)CC1O)COP(=O)(O)OCC1OC(n2ccc(N)nc2=O)C(O)C1O (stereo not given)	> 100 µM (inactive)	> 40.2 µM (inactive)	64.6 µM (inactive)	> 32.2 µM (inactive)	13.2 µM (inactive)	3.33 µM (inactive)	6.46 µM (inactive)	10.9 µM (inactive)	15.6 µM (inactive)	1.72 µM (inactive)	2.56 µM (inactive)	0.159 µM (active)	4.81 µM (inactive)	59.2 µM (inactive)	1.14 µM (inactive)	6.19 µM (inactive)	> 95.5 µM (inactive)	> 68.9 µM (inactive)	33.2 µM (inactive)
O=c1[nH]c2nccn2c(Cl)c1Br	17.5 µM (inactive)	14.6 µM (inactive)	19.4 µM (inactive)	19.6 µM (inactive)	22.4 µM (inactive)	83.8 µM (inactive)	27.7 µM (inactive)	54.3 µM (inactive)	50.2 µM (inactive)	20.2 µM (inactive)	19.4 µM (inactive)	24.7 µM (inactive)	20.5 µM (inactive)	95.1 µM (inactive)	18 µM (inactive)	32.5 µM (inactive)	20 µM (inactive)	20 µM (inactive)	> 100 µM (inactive)
O=C(O)c1ccccc1C1CCCc2c1[nH]c1ccccc21 (stereo not given)	37.3 µM (inactive)	47.9 µM (inactive)	96.6 µM (inactive)	34.6 µM (inactive)	72.6 µM (inactive)	> 100 µM (inactive)	> 100 µM (inactive)	28.8 µM (inactive)	46.9 µM (inactive)	27.2 µM (inactive)	53.2 µM (inactive)	69.7 µM (inactive)	20 µM (inactive)	36.7 µM (inactive)	44.2 µM (inactive)	33.8 µM (inactive)	27.6 µM (inactive)	98.9 µM (inactive)	> 100 µM (inactive)
